Consider twelve compounds from patent US10787432B2, “N-[(pyridyloxy)propanyl]benzamides” (Boehringer Ingelheim International GmbH, priority 2016, dated 2020).

SMILES strings stand for the structures.

Tested on in one data set: not listed separately
The experiment in a line: Assay C: Metabolic stability in human liver microsomes (Human MST). Type of data set: in vitro ADME. The following applies: pooled human liver microsomes, pH 7.6; human liver microsomes 1 mg/mL, compound 1 μM, 37° C., NADPH; read-out: Human MST t1/2. In outline: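 Test compound (1 μM) was incubated at 37 °C with pooled human liver microsomes (1 mg/mL protein) in 0.1 M TRIS pH 7.6 with 5 mM MgCl2, and reactions were started with 1 mM NADPH. Aliquots were quenched at several time points and parent compound was quantified by LC-MS/MS. t1/2 came from the slope of the semi-log concentration–time plot.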
In general terms: Liver microsomes are vesicles of endoplasmic reticulum, rich in cytochrome P450 enzymes.
As to `CCN(C(=O)c1cccc(F)c1-c1ncccn1)[C@@H](C)COc1ccc(OC(F)(F)F)cn1` [Example 130], the half-life at 1 μM is above 130 min.
With `CCN(C(=O)c1ccc(F)cc1-c1ncccn1)[C@@H](C)COc1ccc(Br)cn1` [Example 129], the half-life at 1 μM came out at 30 min.
On to `CCN(C(=O)c1ccc(F)c(F)c1-n1nccn1)[C@@H](C)COc1ncc(C(F)(F)F)cc1F` [Example 50], for which the half-life at 1 μM is 46 min.
`CCN(C(=O)c1c(F)cccc1-n1nccn1)[C@@H](C)COc1ccc(C(F)(F)F)cn1` [Example 94]: the half-life at 1 μM came out at 31 min.
For the compound `CCN(C(=O)c1cccc(Cl)c1-n1nccn1)[C@@H](C)COc1ncc(C(F)(F)F)cc1F` [Example 49], the half-life at 1 μM was found to be 81 min.
On to `CCN(C(=O)c1ccccc1-c1cnn(C)c1)[C@@H](C)COc1ncc(C(F)(F)F)cc1F` [Example 132], for which the half-life at 1 μM came out at 11 min.
In the case of `CCN(C(=O)c1cc(F)ccc1-n1nccn1)[C@@H](C)COc1ncc(C(F)(F)F)cc1F` [Example 51], the half-life at 1 μM was found to be 36 min.
As for `CCN(C(=O)c1cc(F)c(F)cc1-n1nccn1)[C@@H](C)COc1ccc(C(F)(F)F)cn1` [Example 4], the half-life at 1 μM is 61 min.
With `CCN(C(=O)c1cccc(F)c1-n1nccn1)[C@@H](C)COc1ccc(C(F)(F)F)cn1` [Example 109], the half-life at 1 μM was 75 min.
As for `CCN(C(=O)c1ccc(Cl)cc1-n1nccn1)[C@@H](C)COc1ncc(C(F)(F)F)cc1F` [Example 73], the half-life at 1 μM stood at 12 min.
With `CCN(C(=O)c1c(-n2nccn2)ccc(C)c1F)[C@@H](C)COc1ncc(C(F)(F)F)cc1F` [Example 127], the half-life at 1 μM turned out to be 15 min.
In the case of `CCN(C(=O)c1cccc(F)c1-n1nccn1)[C@@H](C)COc1ccc(F)c(C(F)(F)F)n1` [Example 133], the half-life at 1 μM was found to be 21 min.

The target of the next data set is T1, human Orexin 1 receptor (Homo sapiens, UniProt O43613).
T1 construct: stably expressing the full-length human Orexin 1 receptor; expressed in transfected cells; host or cells: CHO-K1 (CHO-K1/hOX1), co-expressing aequorin
T1 sequence (O43613 1-425): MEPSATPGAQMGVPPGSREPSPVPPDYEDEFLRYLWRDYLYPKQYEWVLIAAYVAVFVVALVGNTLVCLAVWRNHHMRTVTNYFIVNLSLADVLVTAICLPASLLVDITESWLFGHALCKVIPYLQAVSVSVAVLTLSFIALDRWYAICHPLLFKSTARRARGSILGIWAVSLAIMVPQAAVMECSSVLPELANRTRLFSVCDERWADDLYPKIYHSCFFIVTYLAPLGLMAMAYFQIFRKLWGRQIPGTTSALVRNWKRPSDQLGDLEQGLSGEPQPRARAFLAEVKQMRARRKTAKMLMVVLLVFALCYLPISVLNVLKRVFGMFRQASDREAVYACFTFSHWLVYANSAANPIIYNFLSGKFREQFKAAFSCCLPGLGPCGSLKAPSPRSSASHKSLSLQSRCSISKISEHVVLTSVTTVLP
The experiment in a line: Assay A: In vitro testing of OX1R potency: OX1R IP1 (HTRF, CHO-K1/hOX1 cells, Orexin A as agonist). In kind it is cell-based.
Settings: not given
Take `CCN(C(=O)c1cccc(F)c1-n1nccn1)[C@@H](C)COc1ccc(F)c(C(F)(F)F)n1` [Example 133]: the Kb was determined as 1.6 nM.

The same data set, now with this note: OX1R Kb at 0.5 nM Orexin A.
Turning to `CCN(C(=O)c1ccccc1-c1cnn(C)c1)[C@@H](C)COc1ncc(C(F)(F)F)cc1F` [Example 132], the “OX2R Kb/OX1R Kb” value is 89.
Regarding `CCN(C(=O)c1cc(F)ccc1-n1nccn1)[C@@H](C)COc1ncc(C(F)(F)F)cc1F` [Example 51], the “OX2R Kb/OX1R Kb” value came to 259.
On to `CCN(C(=O)c1cc(F)c(F)cc1-n1nccn1)[C@@H](C)COc1ccc(C(F)(F)F)cn1` [Example 4], for which the “OX2R Kb/OX1R Kb” value is 276.
With `CCN(C(=O)c1cccc(F)c1-n1nccn1)[C@@H](C)COc1ccc(F)c(C(F)(F)F)n1` [Example 133], the “OX2R Kb/OX1R Kb” value is given as 63.

Staying with this data set, now noted: OX1R Kb at 50 nM Orexin A.
Turning to `CCN(C(=O)c1cccc(F)c1-c1ncccn1)[C@@H](C)COc1ccc(OC(F)(F)F)cn1` [Example 130], the “OX2R Kb/OX1R Kb” value is 133.
In the case of `CCN(C(=O)c1ccc(F)cc1-c1ncccn1)[C@@H](C)COc1ccc(Br)cn1` [Example 129], the “OX2R Kb/OX1R Kb” value is listed as 247.
For `CCN(C(=O)c1ccc(F)c(F)c1-n1nccn1)[C@@H](C)COc1ncc(C(F)(F)F)cc1F` [Example 50], the “OX2R Kb/OX1R Kb” value is reported as 410.
Take `CCN(C(=O)c1c(F)cccc1-n1nccn1)[C@@H](C)COc1ccc(C(F)(F)F)cn1` [Example 94]: the “OX2R Kb/OX1R Kb” value was found to be 211.
With `CCN(C(=O)c1cccc(Cl)c1-n1nccn1)[C@@H](C)COc1ncc(C(F)(F)F)cc1F` [Example 49], the “OX2R Kb/OX1R Kb” value was 333.
Take `CCN(C(=O)c1cc(F)ccc1-n1nccn1)[C@@H](C)COc1ncc(C(F)(F)F)cc1F` [Example 51]: the “OX2R Kb/OX1R Kb” value is on record as 430.
As for `CCN(C(=O)c1cc(F)c(F)cc1-n1nccn1)[C@@H](C)COc1ccc(C(F)(F)F)cn1` [Example 4], the “OX2R Kb/OX1R Kb” value came to 187.
Take `CCN(C(=O)c1cccc(F)c1-n1nccn1)[C@@H](C)COc1ccc(C(F)(F)F)cn1` [Example 109]: the “OX2R Kb/OX1R Kb” value is 327.
Turning to `CCN(C(=O)c1ccc(Cl)cc1-n1nccn1)[C@@H](C)COc1ncc(C(F)(F)F)cc1F` [Example 73], the “OX2R Kb/OX1R Kb” value is 734.
Still for that read-out and setting: as for `CCN(C(=O)c1c(-n2nccn2)ccc(C)c1F)[C@@H](C)COc1ncc(C(F)(F)F)cc1F` [Example 127], the figure is 377.

Still in this data set, the particulars now being: Orexin A 0.5 nM; read-out: OX1R Kb (Orexin A concentration used).
In the case of `CCN(C(=O)c1ccccc1-c1cnn(C)c1)[C@@H](C)COc1ncc(C(F)(F)F)cc1F` [Example 132], the Kb was found to be 1.7 nM.
On the same count and under the same terms, as for `CCN(C(=O)c1cc(F)ccc1-n1nccn1)[C@@H](C)COc1ncc(C(F)(F)F)cc1F` [Example 51], the figure is 0.73 nM.
In the case of `CCN(C(=O)c1cc(F)c(F)cc1-n1nccn1)[C@@H](C)COc1ccc(C(F)(F)F)cn1` [Example 4], the Kb came out at 0.5 nM.

Still in this data set, the particulars now being: Orexin A 50 nM; read-out: OX1R Kb (Orexin A concentration used).
In the case of `CCN(C(=O)c1cccc(F)c1-c1ncccn1)[C@@H](C)COc1ccc(OC(F)(F)F)cn1` [Example 130], the Kb is 0.15 nM.
Consider `CCN(C(=O)c1ccc(F)cc1-c1ncccn1)[C@@H](C)COc1ccc(Br)cn1` [Example 129], for which the Kb is 0.17 nM.
For the compound `CCN(C(=O)c1ccc(F)c(F)c1-n1nccn1)[C@@H](C)COc1ncc(C(F)(F)F)cc1F` [Example 50], the Kb came to 0.69 nM.
`CCN(C(=O)c1c(F)cccc1-n1nccn1)[C@@H](C)COc1ccc(C(F)(F)F)cn1` [Example 94]: the Kb turned out to be 0.37 nM.
For `CCN(C(=O)c1cccc(Cl)c1-n1nccn1)[C@@H](C)COc1ncc(C(F)(F)F)cc1F` [Example 49], the Kb stood at 0.066 nM.
Same read-out and setting: as for `CCN(C(=O)c1cc(F)ccc1-n1nccn1)[C@@H](C)COc1ncc(C(F)(F)F)cc1F` [Example 51], the figure is 0.44 nM.
Take `CCN(C(=O)c1cc(F)c(F)cc1-n1nccn1)[C@@H](C)COc1ccc(C(F)(F)F)cn1` [Example 4]: the Kb was determined as 0.74 nM.
Take `CCN(C(=O)c1cccc(F)c1-n1nccn1)[C@@H](C)COc1ccc(C(F)(F)F)cn1` [Example 109]: the Kb was found to be 0.11 nM.
On the same count and under the same terms, the result for `CCN(C(=O)c1ccc(Cl)cc1-n1nccn1)[C@@H](C)COc1ncc(C(F)(F)F)cc1F` [Example 73] reads 0.32 nM; that for `CCN(C(=O)c1c(-n2nccn2)ccc(C)c1F)[C@@H](C)COc1ncc(C(F)(F)F)cc1F` [Example 127], 0.13 nM.

A further data set deals with T2, human orexin 2 receptor (Homo sapiens, UniProt O43614).
T2 construct: stably expressing the full-length human orexin 2 receptor; expressed in transfected cells; host or cells: CHO-K1 (CHO-K1/hOX2), co-expressing aequorin
T2 sequence (O43614 1-444): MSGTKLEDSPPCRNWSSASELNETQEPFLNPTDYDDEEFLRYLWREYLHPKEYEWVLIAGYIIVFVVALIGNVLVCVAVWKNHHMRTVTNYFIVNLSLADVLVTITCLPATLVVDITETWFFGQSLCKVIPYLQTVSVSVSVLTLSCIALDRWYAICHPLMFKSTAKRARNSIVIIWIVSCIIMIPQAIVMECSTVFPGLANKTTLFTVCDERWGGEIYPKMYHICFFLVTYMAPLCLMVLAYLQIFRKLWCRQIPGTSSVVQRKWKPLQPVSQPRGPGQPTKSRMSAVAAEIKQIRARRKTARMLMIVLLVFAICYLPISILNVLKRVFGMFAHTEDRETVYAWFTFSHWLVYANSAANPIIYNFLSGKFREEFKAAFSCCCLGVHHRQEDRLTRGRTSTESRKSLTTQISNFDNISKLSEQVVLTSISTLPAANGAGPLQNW
Put plainly: Assay B: In vitro testing of OX2R potency: OX2R IP1 (HTRF, CHO-K1/hOX2 cells, Orexin A as agonist).
Settings: not given
Type of data set: cell-based. In outline:
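CHO-K1 cells stably expressing full-length human OX2R, pretreated 15 min at room temperature with compound (8-point, 1% DMSO) in HBSS/HEPES/BSA with 50 mM LiCl, pH 7.4, then stimulated 60 min at 37 °C with 0.5 nM Orexin A. IP1 by HTRF (665/615 ratio); IC50 from 4-parameter fit converted to agonist-independent Kb.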
(Time-resolved FRET reads energy transfer from a long-lived donor to a nearby acceptor.)
As for `CCN(C(=O)c1cccc(F)c1-n1nccn1)[C@@H](C)COc1ccc(F)c(C(F)(F)F)n1` [Example 133], the Kb worked out at 101 nM.

Staying with this data set, now noted: Orexin A 0.5 nM.
For `CCN(C(=O)c1cccc(F)c1-c1ncccn1)[C@@H](C)COc1ccc(OC(F)(F)F)cn1` [Example 130], the Kb came out at 20 nM.
`CCN(C(=O)c1ccc(F)cc1-c1ncccn1)[C@@H](C)COc1ccc(Br)cn1` [Example 129]: the Kb was determined as 42 nM.
Compound `CCN(C(=O)c1ccc(F)c(F)c1-n1nccn1)[C@@H](C)COc1ncc(C(F)(F)F)cc1F` [Example 50] yielded a Kb of 283 nM.
Consider `CCN(C(=O)c1c(F)cccc1-n1nccn1)[C@@H](C)COc1ccc(C(F)(F)F)cn1` [Example 94], for which the Kb was found to be 78 nM.
On to `CCN(C(=O)c1cccc(Cl)c1-n1nccn1)[C@@H](C)COc1ncc(C(F)(F)F)cc1F` [Example 49], for which the Kb worked out at 22 nM.
The same measure, in the same setting: the result for `CCN(C(=O)c1ccccc1-c1cnn(C)c1)[C@@H](C)COc1ncc(C(F)(F)F)cc1F` [Example 132] reads 152 nM.
On to `CCN(C(=O)c1cc(F)ccc1-n1nccn1)[C@@H](C)COc1ncc(C(F)(F)F)cc1F` [Example 51], for which the Kb came out at 189 nM.
With `CCN(C(=O)c1cc(F)c(F)cc1-n1nccn1)[C@@H](C)COc1ccc(C(F)(F)F)cn1` [Example 4], the Kb was 138 nM.
`CCN(C(=O)c1cccc(F)c1-n1nccn1)[C@@H](C)COc1ccc(C(F)(F)F)cn1` [Example 109] returned a Kb of 36 nM.
`CCN(C(=O)c1ccc(Cl)cc1-n1nccn1)[C@@H](C)COc1ncc(C(F)(F)F)cc1F` [Example 73] showed a Kb of 235 nM.
In the case of `CCN(C(=O)c1c(-n2nccn2)ccc(C)c1F)[C@@H](C)COc1ncc(C(F)(F)F)cc1F` [Example 127], the Kb came out at 49 nM.
